Values of other authors in patent US9229014B2, “Methods of assessing the need for and the effectiveness of therapy with antioxidants” (priority 2004, dated 2016).
One block for each compound: values may come before it.

Legend:
[1] = lipid-soluble antioxidant
heart and liver tissues = conditions: ADR-induced rats; for serum and tissue levels of LDH, aminotransferases and ALP: comparison with control group

Compound: CC(C)=CCC/C(C)=C/C=C/C(C)=C/C=C/C(C)=C/C=C/C=C(C)/C=C/C=C(C)/C=C/C=C(\C)CCC=C(C)C [Lycopene]
antioxidant activity relative to vitamin E [1]: 2.8 times higher than vitamin E

serum and tissue levels of LDH, aminotransferases and ALP (heart and liver tissues): significantly elevated
Compound: COc1cccc2c1C(=O)c1c(O)c3c(c(O)c1C2=O)C[C@@](O)(C(=O)CO)C[C@@H]3O[C@H]1C[C@H](N)[C@H](O)[C@H](C)O1 [ADR, adriamycin]

Compound: CC1=C(/C=C/C(C)=C/C=C/C(C)=C/C=C/C=C(C)/C=C/C=C(C)/C=C/C2=C(C)C[C@@H](O)CC2(C)C)C(C)(C)CCC1 [Beta-Cryptoxanthin]
antioxidant activity relative to vitamin E [1]: 3.1 times higher than vitamin E

Compound: CC1=C[C@H](O)CC(C)(C)[C@H]1/C=C/C(C)=C/C=C/C(C)=C/C=C/C=C(C)/C=C/C=C(C)/C=C/C1=C(C)C[C@@H](O)CC1(C)C [Lutein]
antioxidant activity relative to vitamin E [1]: 2.3 times higher than vitamin E

Compound: CC1=C(/C=C/C(C)=C/C=C/C(C)=C/C=C/C=C(C)/C=C/C=C(C)/C=C/C2=C(C)C[C@@H](O)CC2(C)C)C(C)(C)C[C@H](O)C1 [Zeaxanthin]
antioxidant activity relative to vitamin E [1]: 2.8 times higher than vitamin E

serum and tissue levels of LDH, aminotransferases and ALP (heart and liver tissues): prevented the rise
Compound: low molecular weight heparin [LMWH]
cardiac and hepatic lipid peroxidation induced by ADR (heart and liver tissues): decreased
rise in serum CPK (cardiotoxicity) (heart and liver tissues; LMWH treatment): attenuated

Compound: N.N.O=C([O-])C1(C(=O)[O-])CCC1.[Pt+2] [Carboplatin]
reduced to oxidized glutathione ratio, antioxidant enzyme activities (inferior colliculus; 4 days after treatment): significantly depressed
nitric oxide and lipid peroxidation, xanthine oxidase, and manganese superoxide dismutase activities (inferior colliculus; not in the cerebellum): significantly increased
